Read-outs that look alike come from different tables or passages of the source.

The test system of the test is tumor tissue of lung cancer patients transplanted in SCID mice. On the procedure:
Further, tumor tissue was collected from each of the patients at the same time when drug administration was started, and a 2 mm-square piece of the tumor tissue was transplanted under the skin of SCID (Severe Combined ImminoDeficiency) mice (5 mice transplanted with tumor tissue derived from each patient were produced, and a total of 20 mice were produced). […] After 1 day and 100 days from the administration, tumor tissue was collected from the mice, and sample slides were prepared in the same manner as in Preparation for evaluation-1.

Consider `COc1cc2ncnc(Nc3ccc(F)c(Cl)c3)c2cc1OCCCN1CCOCC1` [Gefitinib], for which the “resistance in PDX mice” value (PDX mice of the patient B or D (so in the source), judged from tumor volume) is recorded as “resistance was not developed”. Besides, the volume of tumor result is, setting by setting: (PDX mice transplanted with tumor tissue of patient F or H (drug resistant on day 100)) “once reduced on day 100 after drug administration, but was increased thereafter”; (PDX mice transplanted with tumor tissue of the patient B or D (so in the source) with no drug resistance on day 100) “gradually reduced”. Also, the “resistance to Gefitinib in PDX mice” value (PDX mice transplanted with tumor tissue of patient F or H, judged from tumor volume) is listed as “resistance to Gefitinib was developed”.

(Values after patent publication US12339285B2, “Method for estimating therapeutic efficacy” (Konica Minolta, Inc., priority 2017, dated 2025).)
